# Target: T1, GCase (GBA) in human fibroblast cell line GM10915 harboring the L444P GBA mutation (Homo sapiens, UniProt P04062, L483P)
# T1 construct: Human fibroblast cell line GM10915 harboring the L444P GBA mutation; host or cells: GM10915 human fibroblasts
# T1 sequence (P04062 40-536 L483P): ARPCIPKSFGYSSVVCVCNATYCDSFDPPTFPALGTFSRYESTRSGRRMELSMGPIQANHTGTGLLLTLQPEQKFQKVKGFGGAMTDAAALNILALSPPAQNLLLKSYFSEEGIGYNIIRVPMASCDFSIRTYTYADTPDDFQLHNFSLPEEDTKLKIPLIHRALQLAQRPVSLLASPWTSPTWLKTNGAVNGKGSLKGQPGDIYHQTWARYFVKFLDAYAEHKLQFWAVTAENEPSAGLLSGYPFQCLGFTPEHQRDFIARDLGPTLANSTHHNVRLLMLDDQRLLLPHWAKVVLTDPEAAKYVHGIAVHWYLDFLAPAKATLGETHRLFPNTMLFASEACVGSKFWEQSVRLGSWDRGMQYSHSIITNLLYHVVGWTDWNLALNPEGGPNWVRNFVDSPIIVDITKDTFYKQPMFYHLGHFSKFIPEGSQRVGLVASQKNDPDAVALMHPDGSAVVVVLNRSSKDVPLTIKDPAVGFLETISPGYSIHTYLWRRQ
# Test: GCase activity assay (4-MUG substrate, normalised to crystal violet staining) in L444P GBA fibroblasts
# Type: cell-based
# Settings: 5 days exposure; for GBA EC1.5: concentration giving 150% GCase activity (1.5-fold induction), 8-point dose range; for Emax: maximum percent GCase activity relative to untreated cells in the dose range tested
# How it was run: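 Patient fibroblasts GM10915 (L444P GBA) exposed to compounds for five days over an 8-point range, with fresh dosing every 2–3 days. Intact-cell GCase measured with 2.5 mM 4-MUG at pH 4.0 for 23 h at 37 °C (ex/em 365/445 nm), normalised to crystal violet, as % of PBS basal; Emax is the maximum reached.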
GBA EC1.5,Emax,Structure (SMILES)
19 µM,203%,"C1CCN(CC2CON=C([C@]34CNC[C@H]3CCOC4)O2)CC1 (relative stereo) [compound 461, rac-rel-trans-(3aR,7aR)-3a-(5-(piperidin-1-ylmethyl)-5,6-dihydro-1,4,2-dioxazin-3-yl)octahydropyrano[3,4-c]pyrrole]"
45 µM,148%,CN(C)CC1CON=C(C2CCN(C)C2)O1 (stereo not shown) [compound 605]
39 µM,121%,"CNC1CNCC(C2=NOCC(CN3CCCCC3)O2)C1 (racemic) [compound 756, rac-N-methyl-5-(5-(piperidin-1-ylmethyl)-5,6-dihydro-1,4,2-dioxazin-3-yl)piperidin-3-amine]"
50 µM,115%,N[C@@H]1CN[C@@H](C2=NOCC(CN3CCCCC3)O2)C1 (stereo partly shown) [compound 557]
16 µM,273%,"CC1(C2=NOCC(CN3CCCCC3)O2)CNCCO1 (racemic) [compound 480, rac-3-(2-methylmorpholin-2-yl)-5-(piperidin-1-ylmethyl)-5,6-dihydro-1,4,2-dioxazine]"
50 µM,110%,CN1C[C@@H]2CN(CC3CON=C(C4(C)CCNCC4)O3)C[C@@H]2C1 (stereo partly shown) [compound 592]
50 µM,119%,CN1CCO[C@@H]2CN(CC3CON=C(C4(C)CCNCC4)O3)C[C@@H]21 (stereo partly shown) [compound 604]
17 µM,341%,"C[C@H](N)C(=O)N1CCCC(C2=NOCC(CN3CCCCC3)O2)C1 (stereo partly drawn) [compound 718, rac-(2S)-2-amino-1-(3-(5-(piperidin-1-ylmethyl)-5,6-dihydro-1,4,2-dioxazin-3-yl)piperidin-1-yl)propan-1-one]"
14 µM,268%,"C1CCN(CC2CON=C([C@@]34CNC[C@@H]3C4)O2)CC1 (relative stereo) [compound 482, rac-rel-trans-3-((1R,5R)-3-azabicyclo[3.1.0]hexan-1-yl)-5-(piperidin-1-ylmethyl)-5,6-dihydro-1,4,2-dioxazine]"
5 µM,175%,COc1cc(OC)c(CNCCC2=NOCC(CN3CCCCC3)O2)cn1 (stereo not shown) [compound 829]
50 µM,113%,CC(=O)N1CCC(C2=NOCC(CN3CCCCC3)O2)CC1 (stereo not shown) [compound 683]
50 µM,103%,O=C1CC(C2=NOCC(CN3CCCCC3)O2)CCN1 (stereo not shown) [compound 649]
11 µM,346%,"COC1CN(C)CCC1C1=NOCC(CN2CCCCC2)O1 (racemic) [compound 720, rac-3-(3-methoxy-1-methylpiperidin-4-yl)-5-(piperidin-1-ylmethyl)-5,6-dihydro-1,4,2-dioxazine]"
50 µM,119%,OC1CCC(C2=NOCC(CN3CCCCC3)O2)CC1 (stereo not shown) [compound 609]
4 µM,225%,C1CCN(CC2CON=C([C@]34CCC[C@H]3NCC4)O2)CC1 (stereo partly shown) [compound 558]
3 µM,275%,"C1CCN(CC2CON=C(C34CCN(CC3)C4)O2)CC1 (racemic) [compound 641, rac-3-(1-azabicyclo[2.2.1]heptan-4-yl)-5-(piperidin-1-ylmethyl)-5,6-dihydro-1,4,2-dioxazine]"
36 µM,168%,"NCC(=O)N1CCCC(C2=NOCC(CN3CCCCC3)O2)C1 (racemic) [compound 725, rac-2-amino-1-(3-(5-(piperidin-1-ylmethyl)-5,6-dihydro-1,4,2-dioxazin-3-yl)piperidin-1-yl)ethan-1-one]"
50 µM,111%,CN1CC(C2=NOCC(CN3CCCCC3)N2)CC1=O (stereo not shown) [compound 601]
50 µM,104%,N[C@H]1CN[C@@H](C2=NOCC(CN3CCCCC3)O2)C1 (stereo partly shown) [compound 564]
8 µM,232%,"c1ncn2c1CC(C1=NOCC(CN3CCCCC3)O1)CC2 (racemic) [compound 655, rac-5-(piperidin-1-ylmethyl)-3-(5,6,7,8-tetrahydroimidazo[1,5-a]pyridin-7-yl)-5,6-dihydro-1,4,2-dioxazine]"

GBA EC1.5,Emax,Structure (SMILES)
25 µM,205%,"COC1CNCCC1C1=NOCC(CN2CCCCC2)O1 (racemic) [compound 690, rac-3-(3-methoxypiperidin-4-yl)-5-(piperidin-1-ylmethyl)-5,6-dihydro-1,4,2-dioxazine]"
35 µM,184%,"C1CCN(CC2CON=C(CC3CCNCC3)O2)CC1 (racemic) [compound 479, rac-5-(piperidin-1-ylmethyl)-3-(piperidin-4-ylmethyl)-5,6-dihydro-1,4,2-dioxazine]"
5 µM,184%,"Cc1ncccc1CC1(C2=NOCC(CN3CCCCC3)O2)CCNCC1 (racemic) [compound 561, rac-3-(4-((2-methylpyridin-3-yl)methyl)piperidin-4-yl)-5-(piperidin-1-ylmethyl)-5,6-dihydro-1,4,2-dioxazine]"
5 µM,194%,c1nc(C2CCNCC2)sc1C1=NOCC(CN2CCCCC2)O1 (stereo not shown) [compound 874]
20 µM,209%,"COC1CNCC(C2=NOCC(CN3CCCCC3)O2)C1 (racemic) [compound 680, rac-3-(5-methoxypiperidin-3-yl)-5-(piperidin-1-ylmethyl)-5,6-dihydro-1,4,2-dioxazine]"
46 µM,149%,"c1cncc(CNCCC2=NOCC(CN3CCCCC3)O2)c1 (racemic) [compound 797, rac-2-(5-(piperidin-1-ylmethyl)-5,6-dihydro-1,4,2-dioxazin-3-yl)-N-(pyridin-3-ylmethyl)ethan-1-amine]"
6 µM,207%,C[C@]1(C2=NOC[C@@H](CN3CCCCC3)O2)CCCNC1 [compound 884]
50 µM,112%,c1cnc(N2CCC(C3=NOCC(CN4CCCCC4)O3)C2)nc1 (stereo not shown) [compound 693]
21 µM,281%,"C1CCN(CC2CON=C(C3C4CNC3C4)O2)CC1 (racemic) [compound 548, rac-3-(2-azabicyclo[2.1.1]hexan-5-yl)-5-(piperidin-1-ylmethyl)-5,6-dihydro-1,4,2-dioxazine]"
6 µM,238%,"CN(C)CCCC1=NOCC(CN2CCCCC2)O1 (racemic) [compound 768, rac-N,N-dimethyl-3-(5-(piperidin-1-ylmethyl)-5,6-dihydro-1,4,2-dioxazin-3-yl)propan-1-amine]"
50 µM,116%,O=c1[nH]nc2n1CCC(C1=NOCC(CN3CCCCC3)O1)C2 (stereo not shown) [compound 668]
6 µM,183%,"CN(C)C12CCC(C3=NOCC(CN4CCCCC4)O3)(CC1)CC2 (racemic) [compound 640, rac-N,N-dimethyl-4-(5-(piperidin-1-ylmethyl)-5,6-dihydro-1,4,2-dioxazin-3-yl)bicyclo[2.2.2]octan-1-amine]"
50 µM,114%,CN1CC[C@@H]2CN(CC3CON=C(C4(C)CCNCC4)O3)C[C@@H]21 (stereo partly shown) [compound 555]
22 µM,178%,"CC(C)N1CCCC(C2=NOCC(CN3CCCCC3)O2)C1 (racemic) [compound 709, rac-3-(1-isopropylpiperidin-3-yl)-5-(piperidin-1-ylmethyl)-5,6-dihydro-1,4,2-dioxazine]"
26 µM,187%,"C1CCN(CC2CON=C(C34CNC(C3)C4)O2)CC1 (racemic) [compound 527, rac-3-(2-azabicyclo[2.1.1]hexan-4-yl)-5-(piperidin-1-ylmethyl)-5,6-dihydro-1,4,2-dioxazine]"
2 µM,311%,c1cnn(C2(C3=NOCC(CN4CCCCC4)O3)CCNCC2)c1 (stereo not shown) [compound 848]
33 µM,175%,"CNC(=O)CN1CCCC(C2=NOCC(CN3CCCCC3)O2)C1 (racemic) [compound 721, rac-N-methyl-2-(3-(5-(piperidin-1-ylmethyl)-5,6-dihydro-1,4,2-dioxazin-3-yl)piperidin-1-yl)acetamide]"
50 µM,103%,COc1ncc(CC2(C3=NOC(C)C(CN4CCCCC4)O3)CCNC2)cc1Cl (stereo not shown) [compound 647]
18 µM,178%,"c1cncc(CC2(C3=NOCC(CN4CCCCC4)O3)CCNC2)c1 (racemic) [compound 643, rac-5-(piperidin-1-ylmethyl)-3-(3-(pyridin-3-ylmethyl)pyrrolidin-3-yl)-5,6-dihydro-1,4,2-dioxazine]"
2 µM,134%,c1cc(C2CCCNC2)ccc1C1=NOCC(CN2CCCCC2)O1 (stereo not shown) [compound 856]

Structure (SMILES),GBA EC1.5,Emax
CN1CC2CC[C@H](C1)N2CC1CON=C(C2(C)CCNCC2)O1 (stereo partly shown) [compound 627],48 µM,133%
